Results published in ChEMBL document CHEMBL1201862, “PubChem BioAssay data set” (2004).
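Values below derive from 48-hour exposures of cells grown in 96-well plates, with endpoints linearly interpolated between the two concentrations bracketing the appropriate inhibition level. GI50 marks 50% less growth.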 The source made the active and inactive calls. No stated cut-off is given here; in the data, active = GI50 up to about 1.1 µM and inactive = higher.

What was measured:
Experiment in all cases: NCI-60 cell line screen, 48 h
IGROV-1 = tested on: IGROV-1
RPMI-8226 = tested on: RPMI-8226
HCT-15 = tested on: HCT-15
NCI-H226 = tested on: NCI-H226
NCI-H460 = tested on: NCI-H460
EKVX = tested on: EKVX
SF-295 = tested on: SF-295
HCC 2998 = tested on: HCC 2998
PC-3 = tested on: PC-3
COLO 205 = tested on: COLO 205
MDA-N = tested on: MDA-N
NCI-H522 = tested on: NCI-H522
MOLT-4 = tested on: MOLT-4
T47D = tested on: T47D
SK-MEL-28 = tested on: SK-MEL-28
UACC-62 = tested on: UACC-62
HL-60 = tested on: HL-60
SF-268 = tested on: SF-268
SN12C = tested on: SN12C
UO-31 = tested on: UO-31

`CC(C)(O)/C1=C/C=C/CCCCCCCCCC1` was tested, and the GI50 (IGROV-1) was > 100 µM (inactive), the GI50 (RPMI-8226) was 33.3 µM (inactive) and the GI50 (HCT-15) was > 100 µM. The GI50 (NCI-H226) was > 100 µM (inactive), the GI50 (NCI-H460) was > 100 µM (inactive) and the GI50 (EKVX) was > 100 µM (inactive). The GI50 (SF-295) was > 100 µM (inactive), the GI50 (HCC 2998) was > 100 µM (inactive) and the GI50 (PC-3) was 87.1 µM (inactive). The GI50 (COLO 205) was > 100 µM (inactive), the GI50 (MDA-N) was > 100 µM (inactive) and the GI50 (NCI-H522) was 95.9 µM (inactive). For the same compound, the GI50 (MOLT-4) was 28.1 µM (inactive), the GI50 (T47D) was > 100 µM (inactive) and the GI50 (SK-MEL-28) was > 100 µM (inactive). The GI50 (UACC-62) was 90.2 µM (inactive), the GI50 (HL-60) was 28.9 µM (inactive) and the GI50 (SF-268) was > 100 µM (inactive). The GI50 (SN12C) was > 100 µM (inactive) and the GI50 (UO-31) was 51.9 µM (inactive).
